Measured values as given in publication PMC6669564, “Cytotoxic Sesquiterpenoid Quinones and Quinols, and an 11-Membered Heterocycle, Kauamide, from the Hawaiian Marine Sponge Dactylospongia elegans” (Marine Drugs, 2019).

Molecular target: β-secretase 1 (BACE1) (Homo sapiens, UniProt P56817)
Assay: HitHunter BACE1 enzyme fragment complementation chemiluminescence assay, […] h incubation, dose response
Type: biochemical

β-secretase 1 (BACE1), sequence (P56817 46-457): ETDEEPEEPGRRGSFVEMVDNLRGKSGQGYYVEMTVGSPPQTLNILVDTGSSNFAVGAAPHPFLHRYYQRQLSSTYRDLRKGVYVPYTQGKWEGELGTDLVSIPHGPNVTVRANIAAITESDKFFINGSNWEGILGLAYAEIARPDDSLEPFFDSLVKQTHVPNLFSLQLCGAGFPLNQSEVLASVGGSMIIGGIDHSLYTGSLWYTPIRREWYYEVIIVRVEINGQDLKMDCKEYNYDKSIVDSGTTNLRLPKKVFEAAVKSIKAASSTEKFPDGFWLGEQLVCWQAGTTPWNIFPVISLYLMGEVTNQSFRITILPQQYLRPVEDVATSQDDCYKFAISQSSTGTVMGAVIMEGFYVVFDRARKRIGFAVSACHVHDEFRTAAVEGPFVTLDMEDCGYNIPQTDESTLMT

## C=C1CCC[C@H]2[C@](C)(CC3=C(O)C(=O)C=C(N)C3=O)[C@@H](C)CC[C@]12C [compound 3, smenospongine]
  IC50: 78 µM

## C=C1CCC[C@H]2[C@](C)(CC3=C(O)C(=O)C=C(OC)C3=O)[C@@H](C)CC[C@]12C [compound 1, ilimaquinone]
  IC50: 65 µM
